How the values were obtained:
CDK9/Cyclin T1 = target: T1, CDK9/Cyclin T1 (Homo sapiens, UniProt P50750); assay: LanthaScreen Eu Kinase Binding Assay, CDK9/Cyclin T1; settings: tracer 236, read-out: CDK9/Cyclin T1 (activity range), Kd
T1 construct: His; purchased Invitrogen
Procedure: (§1) This protocol describes how the LanthaScreen Eu Kinase Binding Assay was performed to determine dissociation constants (Kd) of compounds of general formula (I) and CDK/Cyclin complexes. The principle behind this assay is based upon the binding and displacement of an Alexa Fluor 647-labeled tracer, which binds to the active site of kinases. Binding of the tracer to the kinase is detected using a Eu-labeled antibody. Simultaneous binding of both the tracer and antibody to the kinase gives rise to a FRET-signal. Binding of an inhibitor to the kinase competes for binding with the tracer, resulting in a loss of FRET.
(§2) The compounds of general formula (I) summarized in Table 1 were diluted from a 10 mM DMSO stock solution 1:10 in a total volume of 15 μL DMSO. This compound predilution was then serial diluted 1:3 over 8 steps in DMSO and briefly spun down. Each compound solution was now diluted 1:33.33 in kinase buffer (HEPES: 20 mM, pH: 8.0; MgCl2: 10 mM; DTT: 1 mM; Brij-35: 0,01%), mixed thoroughly and spun down. For every sample, 5 μL of the diluted compound were mixed with 5 μL tracer working solution (e.g. 60 nM tracer 236 in kinase buffer for CDK2/Cyclin A) and 5 μL CDK/Cyclin/Anti-GST-AB-working solution (e.g. 15 nM CDK2/Cyclin A, 1:250 dilution of Anti-GST-AB in kinase buffer) in a well of a small volume 384 well plate (Corning Incorporated, Corning, N.Y., USA; order no. 3673). The tracer concentration was adjusted to its dissociation constant (Kd) for the CDK/Cyclin, which was 30 nM for CDK2/Cyclin A, CDK7/Cyclin H and CDK9/Cyclin T1, 20 nM for CDK8/Cyclin C, and 35 nM for CDK9/Cyclin K. For negative controls, in each well 5 μL of DMSO working solution (3% DMSO diluted in kinase buffer) was mixed with 5 μL Anti-GST-AB working solution (e.g. 1:250 dilution of Anti-GST-AB in kinase buffer for CDK2/Cyclin A) and 5 μL Tracer working solution (e.g. 60 nM Tracer 236 in kinase buffer for CDK2/Cyclin A). For positive controls, in each well 5 μL of DMSO working solution (3% DMSO diluted in kinase buffer) was mixed with 5 μL CDK/Cyclin/Anti-GST-AB-working solution: (e.g. 15 nM CDK2/Cyclin A, 1:250 dilution of Anti-GST-AB in kinase buffer) and 5 μL Tracer working solution (e.g. 60 nM Tracer 236 in kinase buffer for CDK2/Cyclin A). Positive and negative controls were calculated from at least 8 different sample wells. The 384 well plates were mixed in a Teleshaker plate mixer (Beckman Coulter, Brea, Calif., USA) at 2000 rpm for 40 sec, and incubated for 1 h at room temperature before reading. The FRET signal was measured at 340 nm excitation, 665 nm and 615 nm emission (for the kinase tracer and LanthaScreen Eu-AB, respectively) with an Envision spectrophotometer (Perkin Elmer, Waltham, Mass., USA) with […]. Kd values were determined from the sigmoidal dose response curves with the software Quattro Workflow (Quattro GmbH, Munich, Germany).

CDK9/Cyclin K = target: T2, CDK9/Cyclin K (Homo sapiens, UniProt P50750); assay: LanthaScreen Eu Kinase Binding Assay, CDK9/Cyclin K; settings: tracer 236, read-out: CDK9/Cyclin K (activity range), Kd
T2 construct: His; purchased Invitrogen
Procedure: as §1, §2

CDK7/CyclinH/MAT1 = target: T3, CDK7/CyclinH/MAT1 (Homo sapiens, UniProt P50613); assay: LanthaScreen Eu Kinase Binding Assay, CDK7; settings: tracer 236, read-out: CDK7 (activity range), Kd
T3 construct: His; purchased Carna Biosciences
Procedure: as §1, §2

CDK2/CyclinA [1] = target: T4, CDK2/CyclinA (Homo sapiens, UniProt P24941); assay: LanthaScreen Eu Kinase Binding Assay, CDK2; settings: tracer 236, read-out: CDK2 (activity range), Kd
T4 construct: GST; purchased Proqinase
Procedure: as §1, §2

CDK9 = target: T5, CDK9 (Homo sapiens, UniProt P50750); assay: Lance Ultra KinaSelect Assay, CDK9; assay type: biochemical; settings: cyclin partner (T1 or K) not stated; read-out: CDK9 LANCE assay (activity range), IC50
T5 construct: purchased Invitrogen
Procedure: (§3) 2. Measurement of half maximal inhibitory concentration to CDKs This protocol describes how the Lance Ultra KinaSelect Assay was performed to determine half maximal inhibitory concentration (1050) of compounds of general formula (I) and CDK/Cyclin complexes. The principle behind this enzymatic assay is based upon the phosphorylation of the ULight-Peptide Substrat. It is detected by using a specific
(§4) EU-labeled anti-phospho peptide antibody. The binding of the Eu-labeled anti-phospho peptide antibody to the phosphorylated ULight labeled peptide gives rise to a FRET-signal. Binding of an inhibitor to the kinase prevents phosphorylation of the ULight-MBP Substrat, resulting in a loss of FRET.
(§5) The compounds of general formula (I) summarized in Table 5 were diluted from a 10 mM DMSO stock solution 1:10 in a total volume of 15 μL DMSO. This compound predilution was then serial diluted 1:3 over 8 steps in DMSO and briefly spun down. Each compound solution was now diluted 1:20 in Enzymatic Buffer (HEPES: 50 mM, pH: 7.5; MgCl2: 10 mM; EGTA: 1 mM; DTT: 2 mM; Tween-20: 0.01%), mixed thoroughly and spun down. For every sample, 2 μL of the diluted compound were mixed with 6 μL CDK/Cyclin/Substrat solution and 2 μL ATP solution in a well of a small volume 384 well plate (Corning Incorporated, Corning, N.Y., USA; order no. 3673). The CDK/Cyclin was diluted to the appropriate concentration (see Table 3) and the ATP concentration was adjusted to its […] for the CDK/Cyclin, which was 3 μM for CDK2/Cyclin A, 20 μM for CDK1/Cyclin B1, 25 μM for CDK7/Cyclin H and CDK9/Cyclin T1, 55 μM for CDK6/Cyclin D3, 90 μM for CDK4/Cyclin D1 and 125 μM for CDK9/Cyclin K. For negative controls, in each well 2 μL of DMSO solution (1% final DMSO assay concentration) was mixed with 6 μL substrate solution (50 nM ULight MBP final assay concentration) and 2 μL ATP solution (appropriate final concentration see Table 3). For positive controls, in each well 2 μL of DMSO solution (1% final DMSO assay concentration) was mixed with 6 μL CDK/Cyclin/Substrat (appropriate final concentration see Table 3) and 2 μL Tracer ATP solution (appropriate final concentration see Table 3). Positive and negative controls were calculated from at least 8 different sample wells. The 384 well plates were mixed in a Teleshaker plate mixer (Beckman Coulter, Brea, Calif., USA) at 2000 rpm for 40 sec, and incubated for 1 h at room temperature. Before reading, 10 μL the detection buffer (Lance Detection Buffer 1×; EDTA: […]; Eu-Anti-P-MBP: see Table 3) was added. The FRET signal was measured at 340 nm excitation, 665 nm and 615 nm emission (for the kinase tracer and LanthaScreen Eu-AB, respectively) with an Envision spectrophotometer (Perkin Elmer, Waltham, Mass., USA) with 50 μs delay and 300 μs integration time. IC50 values were determined from the sigmoidal dose response curves with the software Quattro Workflow (Quattro GmbH, Munich, Germany).

CDK2/CyclinA [2] = target: T4, CDK2/CyclinA; assay: Lance Ultra KinaSelect Assay, CDK2; assay type: biochemical; settings: ATP 3 μM; read-out: CDK2 LANCE assay (activity range), IC50
Procedure: as §3, §4, §5

T3 sequence (P50613 whole entry): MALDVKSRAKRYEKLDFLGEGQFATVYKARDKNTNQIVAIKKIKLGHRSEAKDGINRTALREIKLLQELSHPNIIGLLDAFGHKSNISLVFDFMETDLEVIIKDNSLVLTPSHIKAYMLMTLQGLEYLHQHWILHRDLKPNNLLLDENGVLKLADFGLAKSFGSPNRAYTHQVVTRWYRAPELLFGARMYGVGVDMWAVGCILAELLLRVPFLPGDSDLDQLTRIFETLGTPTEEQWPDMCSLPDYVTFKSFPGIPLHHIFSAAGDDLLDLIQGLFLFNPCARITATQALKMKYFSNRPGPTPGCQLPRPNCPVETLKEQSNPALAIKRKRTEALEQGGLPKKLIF
T3 sequence (P51946 whole entry partner): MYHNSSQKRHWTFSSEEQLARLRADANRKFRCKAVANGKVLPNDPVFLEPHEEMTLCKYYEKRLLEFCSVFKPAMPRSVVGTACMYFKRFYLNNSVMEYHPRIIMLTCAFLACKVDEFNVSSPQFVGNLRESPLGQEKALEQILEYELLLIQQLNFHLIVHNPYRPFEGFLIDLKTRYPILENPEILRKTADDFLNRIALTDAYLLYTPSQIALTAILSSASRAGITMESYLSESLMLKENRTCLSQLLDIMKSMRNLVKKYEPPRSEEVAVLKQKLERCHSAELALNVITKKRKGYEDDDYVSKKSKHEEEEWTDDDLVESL
T3 sequence (P51948 whole entry partner): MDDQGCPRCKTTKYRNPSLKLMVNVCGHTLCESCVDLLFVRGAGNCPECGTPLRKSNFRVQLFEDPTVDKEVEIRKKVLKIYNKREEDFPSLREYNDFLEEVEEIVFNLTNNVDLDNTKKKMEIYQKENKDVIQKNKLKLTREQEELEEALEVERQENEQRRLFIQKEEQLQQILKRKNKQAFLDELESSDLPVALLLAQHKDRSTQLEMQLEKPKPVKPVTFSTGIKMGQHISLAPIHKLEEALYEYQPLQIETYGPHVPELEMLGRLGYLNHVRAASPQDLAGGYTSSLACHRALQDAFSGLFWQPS
T1 sequence (P50750 whole entry): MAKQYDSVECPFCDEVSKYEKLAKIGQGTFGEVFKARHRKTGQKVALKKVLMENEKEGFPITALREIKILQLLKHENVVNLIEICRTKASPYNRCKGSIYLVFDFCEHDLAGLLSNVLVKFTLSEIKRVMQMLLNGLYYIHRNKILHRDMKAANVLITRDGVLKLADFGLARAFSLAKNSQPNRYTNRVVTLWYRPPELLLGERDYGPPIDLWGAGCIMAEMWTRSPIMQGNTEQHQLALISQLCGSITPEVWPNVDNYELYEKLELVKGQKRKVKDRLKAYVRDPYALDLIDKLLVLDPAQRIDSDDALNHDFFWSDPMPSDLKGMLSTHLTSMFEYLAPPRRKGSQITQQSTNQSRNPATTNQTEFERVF
T1 sequence (O60563 whole entry partner): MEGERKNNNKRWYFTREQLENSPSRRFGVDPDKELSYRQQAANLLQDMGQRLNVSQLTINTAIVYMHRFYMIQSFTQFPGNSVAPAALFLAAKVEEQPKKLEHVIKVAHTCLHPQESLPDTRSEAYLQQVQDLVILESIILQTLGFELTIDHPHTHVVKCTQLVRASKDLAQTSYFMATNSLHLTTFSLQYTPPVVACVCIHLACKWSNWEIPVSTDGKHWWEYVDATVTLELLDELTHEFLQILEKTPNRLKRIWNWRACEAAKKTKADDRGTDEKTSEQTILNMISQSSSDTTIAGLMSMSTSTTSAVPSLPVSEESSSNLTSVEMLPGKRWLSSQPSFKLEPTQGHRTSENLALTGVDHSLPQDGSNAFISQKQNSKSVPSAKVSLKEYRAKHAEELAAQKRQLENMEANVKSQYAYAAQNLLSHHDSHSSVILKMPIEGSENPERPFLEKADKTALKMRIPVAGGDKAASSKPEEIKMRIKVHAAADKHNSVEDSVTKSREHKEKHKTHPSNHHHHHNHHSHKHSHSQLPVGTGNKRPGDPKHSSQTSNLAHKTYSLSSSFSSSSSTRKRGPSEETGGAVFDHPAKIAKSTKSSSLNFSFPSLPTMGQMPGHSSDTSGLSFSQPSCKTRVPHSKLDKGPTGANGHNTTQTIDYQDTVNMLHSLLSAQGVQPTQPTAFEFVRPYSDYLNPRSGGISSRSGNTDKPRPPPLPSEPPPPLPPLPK
T2 sequence (P50750 whole entry): as the sequence (P50750 whole entry) above
T2 sequence (O75909 1-357 isoform O75909-1 partner): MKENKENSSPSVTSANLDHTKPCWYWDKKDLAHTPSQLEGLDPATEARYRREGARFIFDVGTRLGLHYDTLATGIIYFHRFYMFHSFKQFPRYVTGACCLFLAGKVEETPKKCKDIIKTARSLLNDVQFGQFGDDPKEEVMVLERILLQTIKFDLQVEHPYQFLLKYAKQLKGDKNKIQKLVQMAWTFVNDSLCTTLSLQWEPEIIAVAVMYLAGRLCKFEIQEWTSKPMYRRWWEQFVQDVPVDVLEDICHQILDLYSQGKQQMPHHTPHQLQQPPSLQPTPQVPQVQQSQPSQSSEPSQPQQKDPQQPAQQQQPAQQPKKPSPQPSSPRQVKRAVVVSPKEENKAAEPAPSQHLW
T5 sequence (P50750 whole entry): as the sequence (P50750 whole entry) above

Kd (CDK9/Cyclin T1) [nM] | Kd (CDK9/Cyclin K) [nM] | Kd (CDK7/CyclinH/MAT1) [nM] | Kd (CDK2/CyclinA [1]) [nM] | IC50 (CDK9) [nM] | IC50 (CDK2/CyclinA [2]) [nM] | SMILES
1000 to 10000 | > 10000 | > 10000 | > 10000 |  |  | NS(=O)(=O)Cc1cccc(Nc2ncnc(N3CCC[C@@H]3CN3CCCC3)n2)c1 [Compound B31, (R)-3-[(4-(2-((Pyrrolidin-1-yl)methyl)pyrrolidin-1-yl)-1,3,5-triazin-2-yl)amino]benzenemethanesulfonamide]
< 100 | < 100 | > 10000 | 100 to 1000 |  |  | NS(=O)(=O)Cc1cccc(Nc2ncnc(N3CCc4ccccc43)n2)c1 [Compound B52, 3-[(4-(Indolin-1-yl)-1,3,5-triazin-2-yl)amino]-benzenemethane sulfonamide]
100 to 1000 |  | > 10000 | 1000 to 10000 | 1000 to 10000 | 1000 to 10000 | NS(=O)(=O)Cc1cccc(Nc2ncnc(N3CCC[C@@H]3C(F)(F)F)n2)c1 [Compound B54, (R)-3-[(4-(2-(Trifluoromethyl)pyrrolidin-1-yl)-1,3,5-triazin-2-yl)amino]-benzenemethanesulfonamide]
100 to 1000 | 100 to 1000 | 1000 to 10000 | 1000 to 10000 |  |  | NS(=O)(=O)Cc1cccc(Nc2ncnc(N3CCOCC3)n2)c1 [Compound B10, 3-[(4-(Morpholin-4-yl)-1,3,5-triazin-2-yl)amino]benzenemethane sulfonamide]
< 100 |  | > 10000 | 1000 to 10000 | 100 to 1000 | 1000 to 10000 | C[C@H]1CCCN1c1ncnc(Nc2cccc(CS(N)(=O)=O)c2)n1 [Compound B53, (S)-3-[(4-(2-Methylpyrrolidin-1-yl)-1,3,5-triazin-2-yl)amino]-benzenemethanesulfonamide]
1000 to 10000 | > 10000 | > 10000 | > 10000 |  |  | COC[C@@H]1CCCN1c1ncnc(Nc2cccc(CS(N)(=O)=O)c2)n1 [Compound B18, (S)-3-[(4-(2-(Methoxymethyl)pyrrolidin-1-yl)-1,3,5-triazin-2-yl)amino]benzenemethanesulfonamide]
1000 to 10000 | 1000 to 10000 | > 10000 | > 10000 |  |  | NS(=O)(=O)Cc1cccc(Nc2ncnc(N3CCC[C@H]3CO)n2)c1 [Compound B25, (S)-3-[(4-(2-(Hydroxymethyl)pyrrolidin-1-yl)-1,3,5-triazin-2-yl)amino]-benzenemethanesulfonamide]
100 to 1000 | 100 to 1000 | > 10000 | > 10000 |  |  | COC[C@H]1CCCCN1c1ncnc(Nc2cccc(CS(N)(=O)=O)c2)n1 [Compound B5, (R)-3-[(4-(2-Methoxymethylpiperidin-1-yl)-1,3,5-triazin-2-yl)amino]-benzenemethanesulfonamide]
100 to 1000 | 1000 to 10000 | > 10000 | > 10000 |  |  | COC[C@H]1CCN1c1ncnc(Nc2cccc(CS(N)(=O)=O)c2)n1 [Compound B35, (R)-3-[(4-(2-(Methoxymethyl)azetidin-1-yl)-1,3,5-triazin-2-yl)amino]-benzenemethanesulfonamide]
1000 to 10000 | 1000 to 10000 | > 10000 |  |  |  | NS(=O)(=O)Cc1cccc(Nc2ncnc(N3CCc4ccccc4C3)n2)c1 [Compound B40, 3-[(4-(3,4-Dihydroisoquinolin-2(1H)-yl)-1,3,5-triazin-2-yl)amino]-benzenemethanesulfonamide]
100 to 1000 | 100 to 1000 | > 10000 |  |  |  | NS(=O)(=O)Cc1cccc(Nc2ncnc(N3CCC(F)(F)CC3)n2)c1 [Compound B2, 3-[(4-(4,4-Difluoropiperidin-1-yl)-1,3,5-triazin-2-yl)amino]-benzenemethanesulfonamide]
1000 to 10000 | 1000 to 10000 | > 10000 | > 10000 |  |  | NS(=O)(=O)Cc1cccc(Nc2ncnc(N3CCC[C@@H]3CO)n2)c1 [Compound B24, (R)-3-[(4-(2-(Hydroxymethyl)pyrrolidin-1-yl)-1,3,5-triazin-2-yl)amino]-benzenemethanesulfonamide]
> 10000 | > 10000 | > 10000 |  |  |  | NS(=O)(=O)Cc1cccc(Nc2ncnc(N3CCNCC3)n2)c1 [Compound B11, 3-[(4-(piperazin-1-yl)-1,3,5-triazin-2-yl)amino]benzenemethane sulfonamide]
< 100 | < 100 | > 10000 | 100 to 1000 |  |  | NS(=O)(=O)Cc1cccc(Nc2ncnc(N3CCCc4ccccc43)n2)c1 [Compound B42, 3-[(4-(3,4-Dihydroquinolin-1(2H)-yl)-1,3,5-triazin-2-yl)amino]-benzenemethanesulfonamide]
100 to 1000 | 100 to 1000 | > 10000 |  |  |  | NS(=O)(=O)Cc1cccc(Nc2ncnc(N3CCC3c3ccccc3)n2)c1 (racemic) [Compound B37, rac-3-[(4-(2-Phenylazetidin-1-yl)-1,3,5-triazin-2-yl)amino]-benzenemethanesulfonamide]
> 10000 | > 10000 | > 10000 |  |  |  | COC[C@H]1CC[C@H](COC)N1c1ncnc(Nc2cccc(CS(N)(=O)=O)c2)n1 [Compound B19, 3-[(4-((2R,5R)-Bis(methoxymethyl)pyrrolidin-1-yl)-1,3,5-triazin-2-yl)amino]benzenemethanesulfonamide]
